{"source": "patent US20060252683A1", "about": "“Preparation of a peptide compound (SYRAPRO-2000) and its use for the activation of protein phosphatase-2A1 enzyme” (priority 2005, published 2006)", "key": {"protein phosphatase-2B": {"test_system": "protein phosphatase-2B", "experiment": "Protein phosphatase-2B assay", "assay_type": "biochemical, pig", "conditions": "various concentrations", "procedure": "(§1) Protein phosphatase-1 (squares), protein phosphatase-2A1 (circles), protein phosphatase-2B (triangles) and protein phosphatase-2C (stars) were assayed in the presence of various concentrations of HIV-1 Vpr^71-96. 100 percent protein phosphatase activity is equivalent to 0.005 unit. Similar results were obtained in 3 independent experiments.\n(§2) ^32P-labeled phosphorylase a was prepared by phosphorylation of phosphorylase b with phosphorylase kinase as described in (Cohen 1988). ^32P-labeled casein was prepared by phosphorylation of casein with protein kinase A as described in (Tung 1986). Protein phosphatase-1 was purified from rabbit skeletal muscle as described in (Cohen 1988). Protein phosphatase-1 inhibitor-2 was purified from rabbit skeletal muscle as described in (Yang 1981). Protein phosphatase-2A0 and protein phosphatase-2A1 from pig brain and from pig liver were purified as described in (Tung 1985). Protein phosphatase-2A0 and protein phosphatase-2A1 from pig adipose tissue were highly purified by successive chromatography of pig subcutaneous adipose tissue extracts on DEAE Sepharose, Poly-L-lysine Agarose, Sephacryl S-300 HR and thiophosphorylase-a-Sepharose-4B as described in (Tung 1985). Protein phosphatase-2B was purified from pig brain as described in (Tung 1986). […]"}, "[1]": {"experiment": "Dissolution of purified peptide in water", "assay_type": "physicochemical", "procedure": "SYRAPRO-2000, a peptide compound activator of protein phosphatase-2A1 was prepared by chemical synthesis on an automated Solid Phase Peptide Synthesizer. Following synthesis, it was cleaved and purified by reverse phase HPLC on a C18 column. The structure of SYRAPRO-2000 is: […]. The molecular mass of SYRAPRO-2000 was determined by MALDI ToF MS. The purified material, a white solid was readily dissolved in and reconstituted in water at ˜1-2 mg/ml. For its use as an in vitro activator of protein phosphatase-2A1, it is dissolved in the assay buffer which consisted of 0.02 ml of enzyme solution in 50 mM Imidazole-Cl pH 7.2, 0.2 mM EGTA, 0.1% (v/v) 2-mercaptoethanol and 1 mg/ml bovine serum albumin. For its use on intact cells, it is dissolved in the culture medium."}, "protein phosphatase-1": {"target": "T1, protein phosphatase-1 (Oryctolagus cuniculus, UniProt P62139)", "T1 construct": "Protein phosphatase-1 was purified from rabbit skeletal muscle; from tissue; host or cells: rabbit skeletal muscle", "T1 sequence (P62139 whole entry)": "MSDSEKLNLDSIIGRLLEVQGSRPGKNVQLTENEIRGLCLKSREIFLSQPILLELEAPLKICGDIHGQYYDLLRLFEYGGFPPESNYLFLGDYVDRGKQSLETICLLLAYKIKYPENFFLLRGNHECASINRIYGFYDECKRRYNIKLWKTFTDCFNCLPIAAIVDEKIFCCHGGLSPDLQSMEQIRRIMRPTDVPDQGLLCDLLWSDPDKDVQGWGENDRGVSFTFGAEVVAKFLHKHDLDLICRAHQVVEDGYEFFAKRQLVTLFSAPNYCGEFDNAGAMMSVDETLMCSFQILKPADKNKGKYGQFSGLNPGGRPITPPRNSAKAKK", "experiment": "Protein phosphatase-1 assay", "assay_type": "biochemical, rabbit", "conditions": "various concentrations", "procedure": "as §1, §2"}}}
{"smiles": "CC[C@H](C)[C@H](NC(=O)[C@H](CCCNC(=N)N)NC(=O)[C@H](CO)NC(=O)[C@H](Cc1c[nH]cn1)NC(=O)[C@H](CCCNC(=N)N)NC(=O)[C@H](CS)NC(=O)CNC(=O)[C@@H](NC(=O)[C@H](CCCNC(=N)N)NC(=O)[C@H](Cc1ccccc1)NC(=O)[C@@H](N)Cc1c[nH]cn1)[C@@H](C)CC)C(=O)NCC(=O)N[C@H](C(=O)N[C@H](C(=O)N[C@@H](CCCNC(=N)N)C(=O)N[C@@H](CCC(N)=O)C(=O)N[C@@H](CCCNC(=N)N)C(=O)N[C@@H](CCCNC(=N)N)C(=O)N[C@@H](C)C(=O)N[C@@H](CCCNC(=N)N)C(=O)N[C@@H](CC(N)=O)C(=O)NCC(=O)N[C@@H](C)C(=O)N[C@@H](CO)C(=O)N[C@@H](CCCNC(=N)N)C(=O)N[C@@H](CO)C(=O)O)[C@@H](C)O)C(C)C", "note": "[SYRAPRO-2000]", "values": [{"measurement": "effect on activity of protein phosphatase-2B", "setting": "protein phosphatase-2B", "result": "negligible effect"}, {"measurement": "readily dissolved and reconstituted in water", "setting": "[1]", "result": "1 to 2", "unit": "mg/mL"}, {"measurement": "effect on activity of protein phosphatase-1", "setting": "protein phosphatase-1", "result": "negligible effect"}]}
